Test results taken from patent publication US20240109917A1 (ACTELION PHARMACEUTICALS LTD, priority 2020, published 2024).

Biological target: His6-TEV-PDGFRβ (557-1016) (Homo sapiens (Human), UniProt P09619)
Assay: PDGFRβ HTRF Assay
Assay type: biochemical
Details: read-out: PDGFR HTRF IC50
Outline: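 HTRF KinEASE-TK readout (665/620 nm ratio) of TK-biotin substrate phosphorylation by His-tagged PDGFRβ kinase domain. Enzyme and inhibitor preincubated 30 min, then ATP/substrate added for 3 h at room temperature before 60 min EDTA quench/detection.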

His6-TEV-PDGFRβ (557-1016), sequence (P09619 557-1016): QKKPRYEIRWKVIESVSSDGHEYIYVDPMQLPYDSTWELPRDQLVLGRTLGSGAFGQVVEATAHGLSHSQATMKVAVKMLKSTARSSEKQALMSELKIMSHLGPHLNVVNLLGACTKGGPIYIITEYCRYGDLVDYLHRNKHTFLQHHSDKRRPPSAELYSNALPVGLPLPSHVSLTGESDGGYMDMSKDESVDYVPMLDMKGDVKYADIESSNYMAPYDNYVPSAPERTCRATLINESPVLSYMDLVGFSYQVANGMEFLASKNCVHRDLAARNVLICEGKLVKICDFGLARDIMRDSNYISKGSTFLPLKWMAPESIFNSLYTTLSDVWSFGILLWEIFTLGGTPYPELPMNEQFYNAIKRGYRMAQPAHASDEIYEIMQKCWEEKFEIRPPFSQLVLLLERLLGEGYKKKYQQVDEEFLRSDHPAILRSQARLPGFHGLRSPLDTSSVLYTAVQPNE

Point of comparison: Cc1ncc(NC(=O)CN2[C@H](C)COC[C@H]2C)cc1NC(=O)c1cnn2cc(-c3cnn(C)c3)sc12 [Example 51, N-(5-(2-((3R,5R)-3,5-dimethylmorpholino)acetamido)-2-methylpyridin-3-yl)-2-(1-methyl-1H-pyrazol-4-yl)pyrazolo[5,1-b]thiazole-7-carboxamide], IC50 0.4 nM. Against it:
- Cc1ncc(C(=O)NCCN2CCCC23CC3)cc1NC(=O)c1cnn2cc(-c3cnn(C)c3)sc12 [Example 2, N-(5-((2-(4-azaspiro[2.4]heptan-4-yl)ethyl)carbamoyl)-2-methylpyridin-3-yl)-2-(1-methyl-1H-pyrazol-4-yl)pyrazolo[5,1-b]thiazole-7-carboxamide] — 1.7-fold higher, 0.7 nM
- Cc1ncc(C(=O)NCCN2CCCC23CCC3)cc1NC(=O)c1cnn2cc(-c3cnn(C)c3)sc12 [Example 3, N-(5-((2-(5-azaspiro[3.4]octan-5-yl)ethyl)carbamoyl)-2-methylpyridin-3-yl)-2-(1-methyl-1H-pyrazol-4-yl)pyrazolo[5,1-b]thiazole-7-carboxamide] — within 1.5-fold, 0.6 nM
- Cc1ncc(NC(=O)CCN2CCCC2(C)C)cc1NC(=O)c1cnn2cc(-c3cnn(C)c3)sc12 [Example 42, N-(5-(3-(2,2-dimethylpyrrolidin-1-yl)propanamido)-2-methyl-pyridin-3-yl)-2-(1-methyl-1H-pyrazol-4-yl)pyrazolo[5,1-b]thiazole-7-carboxamide] — within 1.5-fold, 0.28 nM
- Cc1ncc(NC(=O)CCN2CC3CCC2CC3)cc1NC(=O)c1cnn2cc(-c3cnn(C)c3)sc12 [Example 43, N-(5-(3-(2-azabicyclo[2.2.2]octan-2-yl)propanamido)-2-methylpyridin-3-yl)-2-(1-methyl-1H-pyrazol-4-yl)pyrazolo[5,1-b]thiazole-7-carboxamide] — 1.7-fold lower, 0.23 nM
- Cc1ncc(NC(=O)CN2C3CCC2COC3)cc1NC(=O)c1cnn2cc(-c3cnn(C)c3)sc12 [Example 44, N-(5-(2-(3-oxa-8-azabicyclo[3.2.1]octan-8-yl)acetamido)-2-methylpyridin-3-yl)-2-(1-methyl-1H-pyrazol-4-yl)pyrazolo[5,1-b]thiazole-7-carboxamide] — 3.2-fold higher, 1.3 nM
- Cc1ncc(NC(=O)CN2CC3CC(C2)O3)cc1NC(=O)c1cnn2cc(-c3cnn(C)c3)sc12 [Example 45, N-(5-(2-(6-oxa-3-azabicyclo[3.1.1]heptan-3-yl)acetamido)-2-methylpyridin-3-yl)-2-(1-methyl-1H-pyrazol-4-yl)pyrazolo[5,1-b]thiazole-7-carboxamide] — 2.5-fold higher, 1 nM
- Cc1ncc(NC(=O)CN2CCC3(CC2)COC3)cc1NC(=O)c1cnn2cc(-c3cnn(C)c3)sc12 [Example 46, N-(5-(2-(2-oxa-7-azaspiro[3.5]nonan-7-yl)acetamido)-2-methylpyridin-3-yl)-2-(1-methyl-1H-pyrazol-4-yl)pyrazolo[5,1-b]thiazole-7-carboxamide] — 7.5-fold higher, 3 nM
- Cc1ncc(NC(=O)CN2CCOCC23CC3)cc1NC(=O)c1cnn2cc(-c3cnn(C)c3)sc12 [Example 47, N-(5-(2-(7-oxa-4-azaspiro[2.5]octan-4-yl)acetamido)-2-methylpyridin-3-yl)-2-(1-methyl-1H-pyrazol-4-yl)pyrazolo[5,1-b]thiazole-7-carboxamide] — 2.2-fold higher, 0.9 nM
- Cc1ncc(NC(=O)CN2Cc3cccnc3C2)cc1NC(=O)c1cnn2cc(-c3cnn(C)c3)sc12 [Example 48, N-(5-(2-(5H-pyrrolo[3,4-b]pyridin-6 (7H)-yl)acetamido)-2-methylpyridin-3-yl)-2-(1-methyl-1H-pyrazol-4-yl)pyrazolo[5,1-b]thiazole-7-carboxamide] — 3.5-fold higher, 1.4 nM
- Cc1ncc(NC(=O)CN2CCCC(F)(F)C2)cc1NC(=O)c1cnn2cc(-c3cnn(C)c3)sc12 [Example 49, N-(5-(2-(3,3-difluoropiperidin-1-yl)acetamido)-2-methylpyridin-3-yl)-2-(1-methyl-1H-pyrazol-4-yl)pyrazolo[5,1-b]thiazole-7-carboxamide] — the same, 0.4 nM
- Cc1ncc(NC(=O)CN2CCOC[C@H]2C)cc1NC(=O)c1cnn2cc(-c3cnn(C)c3)sc12 [Example 50, (R)-2-(1-methyl-1H-pyrazol-4-yl)-N-(2-methyl-5-(2-(3-methylmorpholino)acetamido)pyridin-3-yl)pyrazolo[5,1-b]thiazole-7-carboxamide] — within 1.5-fold, 0.6 nM
- Cc1ncc(NC(=O)CN2C[C@H](C)O[C@@H](C)C2)cc1NC(=O)c1cnn2cc(-c3cnn(C)c3)sc12 [Example 52, N-(5-(2-((2S,6S)-2,6-dimethylmorpholino)acetamido)-2-methylpyridin-3-yl)-2-(1-methyl-1H-pyrazol-4-yl)pyrazolo[5,1-b]thiazole-7-carboxamide] — within 1.5-fold, 0.3 nM
- Cc1ncc(NC(=O)CN2C[C@@H](C)O[C@@H](C)C2)cc1NC(=O)c1cnn2cc(-c3cnn(C)c3)sc12 [Example 53, N-(5-(2-((2R,6S)-2,6-dimethylmorpholino)acetamido)-2-methylpyridin-3-yl)-2-(1-methyl-1H-pyrazol-4-yl)pyrazolo[5,1-b]thiazole-7-carboxamide] — within 1.5-fold, 0.3 nM
- Cc1ncc(NC(=O)CN2CCO[C@H](C)C2)cc1NC(=O)c1cnn2cc(-c3cnn(C)c3)sc12 [Example 54, (R)-2-(1-methyl-1H-pyrazol-4-yl)-N-(2-methyl-5-(2-(2-methylmorpholino)acetamido)pyridin-3-yl)pyrazolo[5,1-b]thiazole-7-carboxamide] — within 1.5-fold, 0.5 nM
- Cc1ncc(NC(=O)CN2CCOCC2)cc1NC(=O)c1cnn2cc(-c3cnn(C)c3)sc12 [Example 55, 2-(1-methyl-1H-pyrazol-4-yl)-N-(2-methyl-5-(2-morpholinoacetamido)pyridin-3-yl)pyrazolo[5,1-b]thiazole-7-carboxamide] — 3.8-fold higher, 1.5 nM
- Cc1ncc(NC(=O)CN2CCc3c(cnn3C)C2)cc1NC(=O)c1cnn2cc(-c3cnn(C)c3)sc12 [Example 57, 2-(1-methyl-1H-pyrazol-4-yl)-N-(2-methyl-5-(2-(1-methyl-6,7-dihydro-1H-pyrazolo[4,3-c]pyridin-5 (4H)-yl)acetamido)pyridin-3-yl)pyrazolo[5,1-b]thiazole-7-carboxamide] — 2.5-fold higher, 1 nM
- Cc1ncc(NC(=O)CN2CCc3ncsc3C2)cc1NC(=O)c1cnn2cc(-c3cnn(C)c3)sc12 [Example 58, N-(5-(2-(6,7-dihydrothiazolo[5,4-c]pyridin-5 (4H)-yl)acetamido)-2-methylpyridin-3-yl)-2-(1-methyl-1H-pyrazol-4-yl)pyrazolo[5,1-b]thiazole-7-carboxamide] — 2.5-fold higher, 1 nM
- Cc1ncc(NC(=O)CN2CCS(=O)(=O)CC2)cc1NC(=O)c1cnn2cc(-c3cnn(C)c3)sc12 [Example 59, N-(5-(2-(1,1-dioxidothiomorpholino)acetamido)-2-methylpyridin-3-yl)-2-(1-methyl-1H-pyrazol-4-yl)pyrazolo[5,1-b]thiazole-7-carboxamide] — 5.2-fold higher, 2.1 nM
- Cc1ncc(NC(=O)CN2CCc3cccnc3C2)cc1NC(=O)c1cnn2cc(-c3cnn(C)c3)sc12 [Example 60, N-(5-(2-(5,6-dihydro-1,7-naphthyridin-7 (8H)-yl)acetamido)-2-methylpyridin-3-yl)-2-(1-methyl-1H-pyrazol-4-yl)pyrazolo[5,1-b]thiazole-7-carboxamide] — 2.5-fold higher, 1 nM
- Cc1ncc(NC(=O)CN2CCc3scnc3C2)cc1NC(=O)c1cnn2cc(-c3cnn(C)c3)sc12 [Example 61, N-(5-(2-(6,7-dihydrothiazolo[4,5-c]pyridin-5 (4H)-yl)acetamido)-2-methylpyridin-3-yl)-2-(1-methyl-1H-pyrazol-4-yl)pyrazolo[5,1-b]thiazole-7-carboxamide] — 2-fold higher, 0.8 nM
- Cc1ncc(NC(=O)CN2CCc3cnccc3C2)cc1NC(=O)c1cnn2cc(-c3cnn(C)c3)sc12 [Example 62, N-(5-(2-(3,4-dihydro-2,6-naphthyridin-2 (1H)-yl)acetamido)-2-methylpyridin-3-yl)-2-(1-methyl-1H-pyrazol-4-yl)pyrazolo[5,1-b]thiazole-7-carboxamide] — 3.5-fold higher, 1.4 nM
- Cc1ncc(NC(=O)CN2CCc3ncccc3C2)cc1NC(=O)c1cnn2cc(-c3cnn(C)c3)sc12 [Example 63, N-(5-(2-(7,8-dihydro-1,6-naphthyridin-6 (5H)-yl)acetamido)-2-methylpyridin-3-yl)-2-(1-methyl-1H-pyrazol-4-yl)pyrazolo[5,1-b]thiazole-7-carboxamide] — 7.2-fold higher, 2.9 nM
- Cc1ncc(NC(=O)CN2CCO[C@@H](C)C2)cc1NC(=O)c1cnn2cc(-c3cnn(C)c3)sc12 [Example 64, (S)-2-(1-methyl-1H-pyrazol-4-yl)-N-(2-methyl-5-(2-(2-methylmorpholino)acetamido)pyridin-3-yl)pyrazolo[5,1-b]thiazole-7-carboxamide] — the same, 0.4 nM
- CC[C@@H]1CN(CC(=O)Nc2cnc(C)c(NC(=O)c3cnn4cc(-c5cnn(C)c5)sc34)c2)CCO1 [Example 65, (R)—N-(5-(2-(2-ethylmorpholino)acetamido)-2-methylpyridin-3-yl)-2-(1-methyl-1H-pyrazol-4-yl)pyrazolo[5,1-b]thiazole-7-carboxamide] — 1.7-fold higher, 0.7 nM
- CC[C@H]1CN(CC(=O)Nc2cnc(C)c(NC(=O)c3cnn4cc(-c5cnn(C)c5)sc34)c2)CCO1 [Example 66, (S)—N-(5-(2-(2-ethylmorpholino)acetamido)-2-methylpyridin-3-yl)-2-(1-methyl-1H-pyrazol-4-yl)pyrazolo[5,1-b]thiazole-7-carboxamide] — within 1.5-fold, 0.3 nM
- Cc1ncc(NC(=O)CN2CCOC(C)(C)C2)cc1NC(=O)c1cnn2cc(-c3cnn(C)c3)sc12 [Example 67, N-(5-(2-(2,2-dimethylmorpholino)acetamido)-2-methylpyridin-3-yl)-2-(1-methyl-1H-pyrazol-4-yl)pyrazolo[5,1-b]thiazole-7-carboxamide] — 2.5-fold higher, 1 nM
- Cc1ncc(NC(=O)CN2CCOCC2(C)C)cc1NC(=O)c1cnn2cc(-c3cnn(C)c3)sc12 [Example 68, N-(5-(2-(3,3-dimethylmorpholino)acetamido)-2-methylpyridin-3-yl)-2-(1-methyl-1H-pyrazol-4-yl)pyrazolo[5,1-b]thiazole-7-carboxamide] — 2-fold higher, 0.8 nM
